Literature values, collected in publication PMC7395068, “The evolution of strategies to minimise the risk of human drug-induced liver injury (DILI) in drug discovery and development” (Archives of Toxicology, 2020).
Read-outs that look alike come from different tables or passages of the source.

Tests used:
rBsep = conditions: In vitro Assay; ref Dawson 2012; cited from earlier work
human hepatocytes = conditions: cited from earlier work
[1] = cited from earlier work
[2] = system: HepG2 cells, primary human hepatocytes; conditions: cited from earlier work
[3] = cited from earlier work; remark: listed apart in the source
[4] = system: THLE-Null and THLE-3A4 cells; conditions: In vitro Assay; ref Gustafsson 2014; cited from earlier work
[5] = cited from earlier work; remark: listed apart in the source
[6] = system: primary human hepatocytes, NIH3T3 fibroblasts, BSEP, CYP3A4; conditions: In vitro Assay; ref Schadt 2015; cited from earlier work
PHH = conditions: In vitro Assay; ref Proctor 2017; cited from earlier work
[7] = system: HepG2 C3A spheroid, BSEP, Glu/Gal in HepG2 cells, bioactivation; conditions: In vitro Assay; ref Williams 2019; cited from earlier work
PHH spheroids = conditions: In vitro Assay; ref Vorrink 2018; cited from earlier work
hLiMTs = conditions: In vitro Assay; ref Proctor 2017; cited from earlier work
[8] = system: THLE or HepG2 cells, isolated mitochondria, BSEP; conditions: In vitro Assay; ref Aleo 2019; cited from earlier work
HepG2 cells [9] = conditions: In vitro Assay; ref Persson 2013; cited from earlier work
HepG2 cells [10] = conditions: In vitro Assay; ref O'Brien 2006; cited from earlier work
[11] = system: isolated mouse liver mitochondria; conditions: In vitro Assay; ref Porceddu 2012; cited from earlier work
[12] = In vitro Assay, ref Garside 2014

COc1cc(C)c(/C=C/C(C)=C/C=C/C(C)=C/C(=O)O)c(C)c1C [acitretin]
+VE: Inhibition of rBsep cutoff<3 (rBsep) | Cluster 1-6 +VE Assay [2, 12] | DILI +VE (5-8), DILI -VE (-4) ([3]; in vivo) | THLE-Null [4] | THLE-Null/3A4 [4] | In vivo DILI ([5]; in vivo)
5: DILI Score (FDA) (1-8) ([1]; ref Chen 2011)
-VE: Inhibition of rBsep cutoff<1& cmax u>.2 (rBsep) | Structural based (HCI) (human hepatocytes)
vMost-DILI-Concern: DILI severity category ([3]; in vivo)

COC(c1ccccc1)(c1ccccc1)[C@H](Oc1nc(C)cc(C)n1)C(=O)O [ambrisentan]
Ambiguous DILI-concern: DILI severity category ([3]; ref Chen 2016)
5: DILI Score (FDA) (1-8) ([1]; ref Chen 2011)
-VE: Cellular toxicity (3T3 cells) [6] | Combined Assay [6] | GSH adduct HML [6] | Hepatocyte cellular toxicity [6] | MitoTox 3T3 [6] | TDI CYP3A4 [6] | hBSEP inhibition [6] | PHH ATP <100uM (PHH) | Bayesian Machine Learning [7] | hLiMTs ATP <20 x Cmax (PHH spheroids) | hLiMTs ATP <100uM (hLiMTs) | DILI +VE (5-8), DILI -VE (-4) ([3]; ref Chen 2016) | Partition Hybrid HRM Score [8] | Ro2 Hybrid HRM Score [8] | In vivo DILI ([5]; ref Proctor 2017) | In vivo DILI ([5]; ref Schadt 2015) | In vivo DILI ([5]; ref Vorrink 2018) | In vivo DILI ([5]; ref Williams 2019)

CC(O)(CS(=O)(=O)c1ccc(F)cc1)C(=O)Nc1ccc(C#N)c(C(F)(F)F)c1 (stereo not drawn) [bicalutamide]
-VE: Structural based (HCI) (human hepatocytes; In vitro Assay, ref Xu 2008) | Cluser analysis (HepG2 cells [9])
vMost-DILI-Concern: DILI severity category ([3]; ref Chen 2016)
8: DILI Score (FDA) (1-8) ([1]; ref Chen 2011)
+VE: Structural based (HCI) (HepG2 cells [9]) | Cluster 1-6 +VE Assay [2, 12] | DILI +VE (5-8), DILI -VE (-4) ([3]; ref Chen 2016) | In vivo DILI ([5]; ref Aleo 2019) | In vivo DILI ([5]; ref Garside 2014) | In vivo DILI ([5]; ref Persson 2013) | In vivo DILI ([5]; ref Xu 2008)

CCCNC(=O)NS(=O)(=O)c1ccc(Cl)cc1 [chlorpropamide]
+VE: DILI +VE (5-8), DILI -VE (-4) ([3]; ref Chen 2016) | Ro2 Hybrid HRM Score [8] | In vivo DILI ([5]; […]) | In vivo DILI ([5]; ref Aleo 2019) | In vivo DILI ([5]; ref Dawson 2012) | In vivo DILI ([5]; ref Garside 2014) | In vivo DILI ([5]; ref Gustafsson 2014)
2: DILI Score (FDA) (1-8) ([1]; ref Chen 2011)
vLess-DILI-Concern: DILI severity category ([3]; ref Chen 2016)
-VE: Inhibition of rBsep cutoff<1& cmax u>.2 (rBsep) | Inhibition of rBsep cutoff<3 (rBsep) | Cluster 1-6 +VE Assay [2, 12] | Partition Hybrid HRM Score [8] | THLE-Null [4] | THLE-Null/3A4 [4]

CN(C)/N=N/c1[nH]cnc1C(N)=O [dacarbazine]
+VE: DILI +VE (5-8), DILI -VE (-4) ([3]; ref Chen 2016) | Ro2 Hybrid HRM Score [8] | In vivo DILI ([5]; […]) | In vivo DILI ([5]; ref Aleo 2019) | In vivo DILI ([5]; ref Garside 2014) | In vivo DILI ([5]; ref Gustafsson 2014) | In vivo DILI ([5]; ref Vorrink 2018)
-VE: Cluster 1-6 +VE Assay [2, 12] | Partition Hybrid HRM Score [8] | THLE-Null [4] | THLE-Null/3A4 [4]
6: DILI Score (FDA) (1-8) ([1]; ref Chen 2011)
vMost-DILI-Concern: DILI severity category ([3]; ref Chen 2016)
+VE (IC20 < 20 × Cmax.tot cut-off): hLiMTs ATP <20 x Cmax (PHH spheroids)

CNCCCN1c2ccccc2CCc2ccccc21 [desipramine]
Ambiguous DILI-concern: DILI severity category ([3]; ref Chen 2016)
+VE: Bayesian Machine Learning [7] | Ro2 Hybrid HRM Score [8] | In vivo DILI ([5]; ref Proctor 2017) | In vivo DILI ([5]; ref Williams 2019)
+VE (IC50 threshold of 100 µM): PHH ATP <100uM (PHH) | hLiMTs ATP <100uM (hLiMTs)
-VE: DILI +VE (5-8), DILI -VE (-4) ([3]; ref Chen 2016) | In vivo DILI ([5]; ref Schadt 2015) | In vivo DILI ([5]; ref Xu 2008)
3: DILI Score (FDA) (1-8) ([1]; ref Chen 2011)

CC1=C(/C=C/C(C)=C/C=C/C(C)=C\C(=O)O)C(C)(C)CCC1 [isotretinoin]
+VE: Structural based (HCI) (human hepatocytes; In vitro Assay, ref Xu 2008) | Cluster 1-6 +VE Assay [2, 12] | DILI +VE (5-8), DILI -VE (-4) ([3]; ref Chen 2016) | In vivo DILI ([5]; ref Garside 2014) | In vivo DILI ([5]; ref O'Brien 2006) | In vivo DILI ([5]; ref Xu 2008)
vMost-DILI-Concern: DILI severity category ([3]; ref Chen 2016)
-VE: Structural based (HCI) (HepG2 cells [10])
2: DILI Score (FDA) (1-8) ([1]; ref Chen 2011)

C[C@](N)(Cc1ccc(O)c(O)c1)C(=O)O [methyldopa]
vMost-DILI-Concern: DILI severity category ([3]; ref Chen 2016)
-VE: Inhibition of rBsep cutoff<1& cmax u>.2 (rBsep) | Inhibition of rBsep cutoff<3 (rBsep) | Cluser analysis (HepG2 cells [9]) | Cluster 1-6 +VE Assay [2, 12] | THLE-Null [4] | THLE-Null/3A4 [4] | in vitro data EC20<=2uM [11] | In vivo DILI ([5]; ref Porceddu 2012) | Structural based (HCI) (HepG2 cells [10])
+VE: Structural based (HCI) (HepG2 cells [9]) | DILI +VE (5-8), DILI -VE (-4) ([3]; ref Chen 2016) | in vitro data EC2<=1x Cmax [11] | In vivo DILI ([5]; […]) | In vivo DILI ([5]; ref Dawson 2012) | In vivo DILI ([5]; ref Garside 2014) | In vivo DILI ([5]; ref Gustafsson 2014) | In vivo DILI ([5]; ref O'Brien 2006) | In vivo DILI ([5]; ref Persson 2013)
8: DILI Score (FDA) (1-8) ([1]; ref Chen 2011)

Fc1ccc([C@@H]2CCNC[C@H]2COc2ccc3c(c2)OCO3)cc1 [paroxetine]
+VE (IC50 threshold of 100 µM): PHH ATP <100uM (PHH) | hLiMTs ATP <100uM (hLiMTs)
+VE: Bayesian Machine Learning [7] | DILI +VE (5-8), DILI -VE (-4) ([3]; ref Chen 2016) | Partition Hybrid HRM Score [8] | In vivo DILI ([5]; ref Aleo 2019) | In vivo DILI ([5]; ref O'Brien 2006) | In vivo DILI ([5]; ref Proctor 2017) | In vivo DILI ([5]; ref Williams 2019)
-VE: hLiMTs ATP <20 x Cmax (PHH spheroids) | Structural based (HCI) (human hepatocytes; In vitro Assay, ref Xu 2008) | Ro2 Hybrid HRM Score [8] | In vivo DILI ([5]; […]) | In vivo DILI ([5]; ref Vorrink 2018) | In vivo DILI ([5]; ref Xu 2008) | Structural based (HCI) (HepG2 cells [10])
vLess-DILI-Concern: DILI severity category ([3]; ref Chen 2016)
8: DILI Score (FDA) (1-8) ([1]; ref Chen 2011)

CC1=C(CC(=O)O)c2cc(F)ccc2/C1=C\c1ccc([S+](C)[O-])cc1 (stereo not drawn) [sulindac]
vMost-DILI-Concern: DILI severity category ([3]; ref Chen 2016)
+VE: Combined Assay [6] | GSH adduct HML [6] | Inhibition of rBsep cutoff<1& cmax u>.2 (rBsep) | Inhibition of rBsep cutoff<3 (rBsep) | Structural based (HCI) (human hepatocytes; In vitro Assay, ref Xu 2008) | DILI +VE (5-8), DILI -VE (-4) ([3]; ref Chen 2016) | in vitro data EC2<=1x Cmax [11] | in vitro data EC20<=2uM [11] | In vivo DILI ([5]; […]) | In vivo DILI ([5]; ref Aleo 2019) | In vivo DILI ([5]; ref Dawson 2012) | In vivo DILI ([5]; ref Garside 2014) | In vivo DILI ([5]; ref Gustafsson 2014) | In vivo DILI ([5]; ref O'Brien 2006) | In vivo DILI ([5]; ref Persson 2013) | In vivo DILI ([5]; ref Porceddu 2012) | In vivo DILI ([5]; ref Schadt 2015) | In vivo DILI ([5]; ref Xu 2008) | Structural based (HCI) (HepG2 cells [10])
8: DILI Score (FDA) (1-8) ([1]; ref Chen 2011)
-VE: Cellular toxicity (3T3 cells) [6] | Hepatocyte cellular toxicity [6] | MitoTox 3T3 [6] | TDI CYP3A4 [6] | hBSEP inhibition [6] | Cluser analysis (HepG2 cells [9]) | Structural based (HCI) (HepG2 cells [9]) | Cluster 1-6 +VE Assay [2, 12] | THLE-Null [4]

CN(C/C=C/C#CC(C)(C)C)Cc1cccc2ccccc12 [terbinafine]
vMost-DILI-Concern: DILI severity category ([3]; ref Chen 2016)
-VE: Cluster 1-6 +VE Assay [2, 12] | THLE-Null/3A4 [4]
+VE: DILI +VE (5-8), DILI -VE (-4) ([3]; ref Chen 2016) | THLE-Null [4] | in vitro data EC2<=1x Cmax [11] | in vitro data EC20<=2uM [11] | In vivo DILI ([5]; ref Garside 2014) | In vivo DILI ([5]; ref Gustafsson 2014) | In vivo DILI ([5]; ref O'Brien 2006) | In vivo DILI ([5]; ref Porceddu 2012) | Structural based (HCI) (HepG2 cells [10])
8: DILI Score (FDA) (1-8) ([1]; ref Chen 2011)

CN(C)[C@@H]1C(O)=C(C(N)=O)C(=O)[C@@]2(O)C(O)=C3C(=O)c4c(O)cccc4[C@@](C)(O)[C@H]3C[C@@H]12 [tetracycline]
2: DILI Score (FDA) (1-8) ([1]; in vivo)
+VE (IC20 < 20 × Cmax.tot cut-off): hLiMTs ATP <20 x Cmax (PHH spheroids)
-VE: Cluster 1-6 +VE Assay [2]
vLess-DILI-Concern: DILI severity category ([3]; in vivo)
+VE: Structural based (HCI) (human hepatocytes) | DILI +VE (5-8), DILI -VE (-4) ([3]; in vivo)

CN1CCN(CCCN2c3ccccc3Sc3ccc(C(F)(F)F)cc32)CC1 [trifluoperazine, reference compound]
Ambiguous DILI-concern: DILI severity category ([3]; ref Chen 2016)
+VE: Structural based (HCI) (human hepatocytes; In vitro Assay, ref Xu 2008) | Cluster 1-6 +VE Assay [2, 12] | In vivo DILI ([5]; ref Garside 2014) | In vivo DILI ([5]; ref O'Brien 2006) | In vivo DILI ([5]; ref Vorrink 2018) | In vivo DILI ([5]; ref Xu 2008)
2: DILI Score (FDA) (1-8) ([1]; ref Chen 2011)
DILI positive in vivo: in vivo DILI classification in publications of Supplemental Table 1 ([5]; publications disagreeing with the LTKB classification, ref Supplemental Table 1 publications)
-VE: hLiMTs ATP <20 x Cmax (PHH spheroids) | DILI +VE (5-8), DILI -VE (-4) ([3]; ref Chen 2016) | Structural based (HCI) (HepG2 cells [10])
